Test results from US7465740B2, “2-heteroaryl-pyrazolo-[4,3-e]-1,2,4-triazolo-[1,5-c]-pyrimidine adenosine A2a receptor antagonists” (Schering Corporation, priority 2005, dated 2008).

Columns and labels:
[1] = target: T1, Human A2a Adenosine Receptor (Homo sapiens, UniProt P29274); test: Human adenosine A2a receptor competition binding assay; settings: [3H]-SCH 58261 displacement, human A2a membranes
T1 construct: purchased Receptor Biology, Inc., Beltsville, Md; RB-HA2a
Method: (§1) Human Adenosine A2a and A1 Receitor Competition Binding Assay Protocol Membrane Sources:
A2a: Human A2a Adenosine Receptor membranes, Catalog #RB-HA2a, Receptor Biology, Inc., Beltsville, Md. Dilute to 17 μg/100 μl in membrane dilution buffer (see below).
(§2) Membrane dilution buffer: Dulbecco's Phosphate Buffered Saline (Gibco/BRL)+10 mM MgCl2.
(§3) Compound Dilution Buffer: Dulbecco's Phosphate Buffered Saline (Gibco/BRL)+10 mM MgCl2 supplemented with 1.6 mg/ml methyl cellulose and 16% DMSO. Prepared fresh daily.
A2a: [3H]-SCH 58261, custom synthesis, AmershamPharmacia Biotech, Piscataway, N.J. Stock is prepared at 1 nM in membrane dilution buffer. Final assay concentration is 0.5 nM.
A2a: To determine non-specific binding, add 100 nM CGS 15923 (RBI, Natick, Mass.). Working stock is prepared at 400 nM in compound dilution buffer.
(§4) Prepare 1 mM stock solutions of compounds in 100% DMSO. Dilute in compound dilution buffer. Test at 10 concentrations ranging from 3 μM to 30 pM. Prepare working solutions at 4× final concentration in compound dilution buffer.
(§5) Perform assays in deep well 96 well plates. Total assay volume is 200 μl. Add 50 μl compound dilution buffer (total ligand binding) or 50 μl CGS 15923 working solution (A2a non-specific binding) or 50 μl NECA working solution (A1 non-specific binding) or 50 μl of drug working solution. Add 50 μl ligand stock ([3H]-SCH 58261 for A2a, [3H]-DPCPX for A1). […]

[2] = target: T2, A1 receptor (Homo sapiens, UniProt P30542); test: Human adenosine A1 receptor competition binding assay (for selectivity); settings: A1/A2a Ki ratio
T2 sequence (P30542 1-326): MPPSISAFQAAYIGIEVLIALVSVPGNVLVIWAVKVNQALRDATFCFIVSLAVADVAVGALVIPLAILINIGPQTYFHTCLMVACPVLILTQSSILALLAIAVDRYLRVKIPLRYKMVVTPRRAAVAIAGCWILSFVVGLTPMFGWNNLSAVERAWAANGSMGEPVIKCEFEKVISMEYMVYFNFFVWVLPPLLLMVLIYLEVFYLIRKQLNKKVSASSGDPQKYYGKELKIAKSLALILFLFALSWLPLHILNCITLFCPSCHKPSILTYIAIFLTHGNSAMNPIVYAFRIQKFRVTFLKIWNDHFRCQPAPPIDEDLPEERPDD
Method: as §1, §2, §3
A1: [3H]-DPCPX, Amersham Pharmacia Biotech, Piscataway, N.J. Stock is prepared at 2 nM in membrane dilution buffer. Final assay concentration is 1 nM.
A1: To determine non-specific binding, add 100 μM NECA (RBI, Natick, Mass.). Working stock is prepared at 400 μM in compound dilution buffer.
as §4
as §5, with “A1). Add 100 μl of diluted membranes containing the appropriate receptor. Mix. Incubate at room temperature for 90 minutes.” for “A1).”
Selectivity is determined by dividing Ki for A1 receptor by Ki for A2a receptor. […]

T1 sequence (P29274 whole entry): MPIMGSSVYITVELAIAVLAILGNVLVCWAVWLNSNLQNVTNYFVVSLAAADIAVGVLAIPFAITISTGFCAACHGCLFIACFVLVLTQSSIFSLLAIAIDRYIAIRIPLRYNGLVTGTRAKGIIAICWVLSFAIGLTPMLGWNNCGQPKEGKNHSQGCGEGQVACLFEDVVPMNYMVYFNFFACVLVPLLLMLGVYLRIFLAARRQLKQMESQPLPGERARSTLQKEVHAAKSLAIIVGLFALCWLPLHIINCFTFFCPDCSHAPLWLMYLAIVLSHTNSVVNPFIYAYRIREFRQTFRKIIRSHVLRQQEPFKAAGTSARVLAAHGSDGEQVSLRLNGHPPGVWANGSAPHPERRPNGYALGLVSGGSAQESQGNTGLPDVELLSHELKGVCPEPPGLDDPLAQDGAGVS

Row | SMILES | Ki [1] [nM] | selectivity (Ki for A1 receptor divided by Ki for A2a receptor) [2]
1 | Cc1nc(-c2ccc(F)c(N3CCN(CCn4ncc5c4nc(N)n4nc(-c6cnccn6)nc54)CC3)c2)co1 [Example 1] | 0.2 | 
2 | Cc1nccnc1-c1nc2c3cnn(CCN4CCN(c5cc(-c6ncco6)ccc5F)CC4)c3nc(N)n2n1 [Example 2-28] |  | above 9000
